Source: ChEMBL document CHEMBL1137358, “Synthetic inhibitors of cytochrome P-450 2A6: inhibitory activity, difference spectra, mechanism of inhibition, and protein cocrystallization” (J Med Chem, 2006)

Assays:
Cytochrome P450 2A6 [1] = molecular target: T1, Cytochrome P450 2A6 (Homo sapiens, UniProt P11509); assay: Inhibition of human CYP2A6
T1 sequence (P11509 whole entry): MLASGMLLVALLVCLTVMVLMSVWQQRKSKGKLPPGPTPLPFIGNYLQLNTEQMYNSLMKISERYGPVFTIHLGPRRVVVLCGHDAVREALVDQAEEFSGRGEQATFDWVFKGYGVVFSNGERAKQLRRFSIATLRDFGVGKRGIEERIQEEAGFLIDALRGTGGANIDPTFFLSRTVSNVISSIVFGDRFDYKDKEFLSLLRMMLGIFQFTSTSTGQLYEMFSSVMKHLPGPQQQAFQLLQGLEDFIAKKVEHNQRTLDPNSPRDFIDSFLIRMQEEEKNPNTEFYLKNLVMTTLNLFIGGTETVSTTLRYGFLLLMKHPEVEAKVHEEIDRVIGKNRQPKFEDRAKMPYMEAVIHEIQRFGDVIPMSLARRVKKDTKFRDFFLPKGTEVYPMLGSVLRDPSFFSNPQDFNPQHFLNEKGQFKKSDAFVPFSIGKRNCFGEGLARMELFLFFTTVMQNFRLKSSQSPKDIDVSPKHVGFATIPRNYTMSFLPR

CYP2A6 over CYP2C9 = assay: Selectivity for CYP2A6 over CYP2C9; conditions: human
Cytochrome P450 3A4 = Cytochrome P450 3A4 (Homo sapiens, UniProt P08684); assay: Inhibition of human CYP3A4
Cytochrome P450 2E1 = Cytochrome P450 2E1 (Homo sapiens, UniProt P05181); assay: Inhibition of human CYP2E1
Cytochrome P450 2C9 = Cytochrome P450 2C9 (Homo sapiens, UniProt P11712); assay: Inhibition of human CYP2C9
Cytochrome P450 2B6 = molecular target: T2, Cytochrome P450 2B6 (Homo sapiens, UniProt P20813); assay: Inhibition of human CYP2B6
T2 sequence (P20813 whole entry): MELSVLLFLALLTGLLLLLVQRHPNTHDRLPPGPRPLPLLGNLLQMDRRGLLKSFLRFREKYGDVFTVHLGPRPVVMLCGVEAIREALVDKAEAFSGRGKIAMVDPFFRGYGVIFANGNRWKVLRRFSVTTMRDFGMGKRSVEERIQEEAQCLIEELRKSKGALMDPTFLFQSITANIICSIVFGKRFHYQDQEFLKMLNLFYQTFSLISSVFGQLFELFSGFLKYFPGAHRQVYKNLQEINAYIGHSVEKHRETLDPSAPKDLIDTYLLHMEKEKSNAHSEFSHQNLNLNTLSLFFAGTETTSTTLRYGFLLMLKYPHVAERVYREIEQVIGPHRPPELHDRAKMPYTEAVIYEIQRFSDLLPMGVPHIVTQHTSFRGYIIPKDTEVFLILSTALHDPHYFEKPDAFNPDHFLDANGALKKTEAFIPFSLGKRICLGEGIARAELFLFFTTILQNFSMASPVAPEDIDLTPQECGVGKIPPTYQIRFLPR

Mus musculus = species: Mus musculus; assay: (§1) Stability in mouse liver microsome; conditions: microsomes
CYP2A6 over CYP3A4 = assay: Selectivity for CYP2A6 over CYP3A4; conditions: human
CYP2A6 over CYP2E1 = assay: Selectivity for CYP2A6 over CYP2E1; conditions: human
Cytochrome P450 2C19 = Cytochrome P450 2C19 (Homo sapiens, UniProt P33261); assay: Inhibition of human CYP2C19
CYP2A6 over CYP2C19 = assay: Selectivity for CYP2A6 over CYP2C19; conditions: human
CYP2A6 over CYP2D6 = assay: Selectivity for CYP2A6 over CYP2D6; conditions: human
Cytochrome P450 2D6 = Cytochrome P450 2D6 (Homo sapiens, UniProt P10635); assay: Inhibition of human CYP2D6
[2] = (§2) Stability in human liver microsome
CYP2A6 over CYP2B6 = assay: Selectivity for CYP2A6 over CYP2B6
[3] = as §1
Liver microsomes = assay: as §2; conditions: microsomes
Cytochrome P450 2A6 [4] = molecular target: T1, Cytochrome P450 2A6; assay: Displacement of coumarin from CYP2A6 at 100 uM; type: ADME

Chain of Cytochrome P450 2D6 (P10635 whole entry): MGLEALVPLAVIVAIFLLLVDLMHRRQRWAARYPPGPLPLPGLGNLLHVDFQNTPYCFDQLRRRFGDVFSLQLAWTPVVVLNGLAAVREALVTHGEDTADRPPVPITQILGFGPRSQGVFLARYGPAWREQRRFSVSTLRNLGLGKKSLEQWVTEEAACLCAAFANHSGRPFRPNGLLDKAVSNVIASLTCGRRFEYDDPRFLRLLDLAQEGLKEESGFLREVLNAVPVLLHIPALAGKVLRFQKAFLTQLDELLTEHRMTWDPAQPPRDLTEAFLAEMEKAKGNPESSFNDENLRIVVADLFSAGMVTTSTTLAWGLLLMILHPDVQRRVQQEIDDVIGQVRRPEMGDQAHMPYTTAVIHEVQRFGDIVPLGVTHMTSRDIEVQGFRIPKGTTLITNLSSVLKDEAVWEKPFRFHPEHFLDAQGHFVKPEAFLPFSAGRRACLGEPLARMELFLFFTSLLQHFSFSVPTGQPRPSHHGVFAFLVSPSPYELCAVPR
Chain of Cytochrome P450 2C9 (P11712 whole entry): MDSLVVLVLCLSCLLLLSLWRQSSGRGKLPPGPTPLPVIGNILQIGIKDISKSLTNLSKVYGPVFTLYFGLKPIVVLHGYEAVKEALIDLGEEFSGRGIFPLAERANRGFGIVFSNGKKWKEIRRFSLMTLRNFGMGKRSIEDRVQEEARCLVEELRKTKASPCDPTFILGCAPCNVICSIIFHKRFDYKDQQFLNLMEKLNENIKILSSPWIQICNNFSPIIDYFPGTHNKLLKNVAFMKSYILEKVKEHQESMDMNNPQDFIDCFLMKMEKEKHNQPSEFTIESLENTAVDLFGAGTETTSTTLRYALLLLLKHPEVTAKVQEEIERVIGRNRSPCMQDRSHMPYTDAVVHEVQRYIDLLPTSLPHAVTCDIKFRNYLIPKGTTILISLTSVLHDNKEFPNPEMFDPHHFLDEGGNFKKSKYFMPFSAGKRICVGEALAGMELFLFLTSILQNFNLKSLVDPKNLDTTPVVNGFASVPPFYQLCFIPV
Chain of Cytochrome P450 3A4 (P08684 whole entry): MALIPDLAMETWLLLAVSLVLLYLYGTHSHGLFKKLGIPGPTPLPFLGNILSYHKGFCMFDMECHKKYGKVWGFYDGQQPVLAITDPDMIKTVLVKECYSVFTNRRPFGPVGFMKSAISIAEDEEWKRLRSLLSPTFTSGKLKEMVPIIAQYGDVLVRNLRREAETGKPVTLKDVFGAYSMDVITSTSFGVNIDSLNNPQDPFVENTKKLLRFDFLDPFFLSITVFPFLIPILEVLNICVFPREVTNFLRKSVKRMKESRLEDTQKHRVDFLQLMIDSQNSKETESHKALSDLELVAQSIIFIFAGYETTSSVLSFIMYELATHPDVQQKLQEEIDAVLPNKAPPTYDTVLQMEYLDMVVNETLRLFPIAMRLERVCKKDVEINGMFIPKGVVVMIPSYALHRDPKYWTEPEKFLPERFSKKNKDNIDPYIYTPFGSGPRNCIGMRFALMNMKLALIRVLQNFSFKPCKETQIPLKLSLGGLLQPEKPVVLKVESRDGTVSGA
Chain of Cytochrome P450 2C19 (P33261 whole entry): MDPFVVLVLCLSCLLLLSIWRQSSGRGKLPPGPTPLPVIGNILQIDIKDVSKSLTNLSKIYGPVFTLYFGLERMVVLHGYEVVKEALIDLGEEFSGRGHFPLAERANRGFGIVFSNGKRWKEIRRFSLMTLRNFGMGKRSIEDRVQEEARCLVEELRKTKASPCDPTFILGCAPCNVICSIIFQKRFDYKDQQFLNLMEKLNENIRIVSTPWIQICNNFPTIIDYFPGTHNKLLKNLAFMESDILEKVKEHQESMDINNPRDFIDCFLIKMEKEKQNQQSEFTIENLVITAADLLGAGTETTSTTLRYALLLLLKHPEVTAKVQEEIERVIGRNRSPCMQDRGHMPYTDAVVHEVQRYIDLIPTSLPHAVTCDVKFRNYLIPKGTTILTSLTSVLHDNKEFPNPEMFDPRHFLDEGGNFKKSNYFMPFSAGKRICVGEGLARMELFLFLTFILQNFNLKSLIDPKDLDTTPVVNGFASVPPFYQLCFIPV
Chain of Cytochrome P450 2E1 (P05181 whole entry): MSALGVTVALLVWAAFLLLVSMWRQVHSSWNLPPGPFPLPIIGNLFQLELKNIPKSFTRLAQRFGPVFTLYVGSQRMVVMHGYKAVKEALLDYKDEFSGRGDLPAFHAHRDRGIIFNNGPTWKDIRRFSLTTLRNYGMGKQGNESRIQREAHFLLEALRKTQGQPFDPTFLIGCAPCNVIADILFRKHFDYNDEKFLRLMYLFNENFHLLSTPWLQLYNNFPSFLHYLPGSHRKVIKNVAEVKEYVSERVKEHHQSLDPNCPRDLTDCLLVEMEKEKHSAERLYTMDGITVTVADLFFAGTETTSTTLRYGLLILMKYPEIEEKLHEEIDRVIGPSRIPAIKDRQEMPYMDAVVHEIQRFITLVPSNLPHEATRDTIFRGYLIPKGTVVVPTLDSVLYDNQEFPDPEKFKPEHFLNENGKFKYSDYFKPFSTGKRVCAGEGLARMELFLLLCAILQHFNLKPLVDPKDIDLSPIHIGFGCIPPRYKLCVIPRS

SMILES: CNCc1ccc(-c2cccnc2)o1
- Ki (Cytochrome P450 2A6 [1]): 0.8 µM
- selectivity ratio (CYP2A6 over CYP2C9): 48
- Ki (Cytochrome P450 3A4): > 400 µM
- Ki (Cytochrome P450 2E1): > 400 µM
- Ki (Cytochrome P450 2C9): 38.1 µM
- Ki (Cytochrome P450 2B6): 179 µM
- Stability (Mus musculus): Stable
- selectivity ratio (CYP2A6 over CYP3A4): > 250
- selectivity ratio (CYP2A6 over CYP2E1): > 250
- Ki (Cytochrome P450 2C19): 15.3 µM
- selectivity ratio (CYP2A6 over CYP2C19): 19
- selectivity ratio (CYP2A6 over CYP2D6): 57
- Ki (Cytochrome P450 2D6): 45.3 µM
- half-life ([2]; liver microsomes): 1.1 h

SMILES: Cc1ccsc1-c1ccc(F)nc1
- Ki (Cytochrome P450 2A6 [1]): 0.6 µM
- selectivity ratio (CYP2A6 over CYP2C9): > 310
- Ki (Cytochrome P450 3A4): 19.6 µM
- Ki (Cytochrome P450 2E1): 184 µM
- Ki (Cytochrome P450 2C9): > 400 µM
- Ki (Cytochrome P450 2B6): 5.9 µM
- Stability (Mus musculus): Stable
- selectivity ratio (CYP2A6 over CYP2B6): 9.1
- selectivity ratio (CYP2A6 over CYP3A4): 5.9
- selectivity ratio (CYP2A6 over CYP2E1): 285
- Ki (Cytochrome P450 2C19): 21 µM
- selectivity ratio (CYP2A6 over CYP2C19): 32
- selectivity ratio (CYP2A6 over CYP2D6): > 310
- Ki (Cytochrome P450 2D6): > 400 µM
- half-life ([2]; liver microsomes): 1.4 h

SMILES: Cc1cscc1-c1cccnc1
- Ki (Cytochrome P450 2A6 [1]): 0.9 µM
- Ki (Cytochrome P450 3A4): < 25 µM
- Ki (Cytochrome P450 2E1): 3.1 µM
- Ki (Cytochrome P450 2C9): 61.5 µM
- Ki (Cytochrome P450 2B6): 3.1 µM
- half-life ([3]; liver microsomes): 0.783 h
- Ki (Cytochrome P450 2C19): 12.5 µM
- Ki (Cytochrome P450 2D6): 96.5 µM
- T1/2 (Liver microsomes): 0.533 h

SMILES: CN(C)CC#Cc1cccnc1
- Ki (Cytochrome P450 2A6 [1]): 67.5 µM
- selectivity ratio (CYP2A6 over CYP2C9): > 3
- Ki (Cytochrome P450 3A4): > 400 µM
- Ki (Cytochrome P450 2E1): > 400 µM
- Ki (Cytochrome P450 2C9): > 400 µM
- Ki (Cytochrome P450 2B6): 192 µM
- Stability (Mus musculus): Stable
- selectivity ratio (CYP2A6 over CYP2B6): 2.8
- selectivity ratio (CYP2A6 over CYP3A4): > 3
- selectivity ratio (CYP2A6 over CYP2E1): > 3
- Ki (Cytochrome P450 2C19): > 400 µM
- selectivity ratio (CYP2A6 over CYP2C19): > 3
- selectivity ratio (CYP2A6 over CYP2D6): > 3
- Ki (Cytochrome P450 2D6): > 400 µM
- Stability (Liver microsomes): Stable

SMILES: SCc1ccc(-c2cccnc2)o1
- Ki (Cytochrome P450 2A6 [1]): < 0.8 µM
- Activity (Cytochrome P450 2A6 [4]): Active
- Ki (Cytochrome P450 3A4): 3.1 µM
- Ki (Cytochrome P450 2E1): 0.05 µM
- Ki (Cytochrome P450 2C9): 0.4 µM
- Ki (Cytochrome P450 2B6): 1.1 µM
- half-life ([3]; microsomes): 1.75 h
- selectivity ratio (CYP2A6 over CYP2B6): > 1.5
- selectivity ratio (CYP2A6 over CYP3A4): > 4.1
- selectivity ratio (CYP2A6 over CYP2E1): < 0.1
- Ki (Cytochrome P450 2C19): 0.2 µM
- selectivity ratio (CYP2A6 over CYP2C19): < 0.3
- selectivity ratio (CYP2A6 over CYP2D6): < 0.9
- Ki (Cytochrome P450 2D6): 0.7 µM
- half-life ([2]; microsomes): 1.98 h

SMILES: c1cncc(-c2ccc(C3SCCS3)o2)c1
- Ki (Cytochrome P450 2A6 [1]): 13.9 µM
- selectivity ratio (CYP2A6 over CYP2C9): 0.1
- Activity (Cytochrome P450 2A6 [4]): Active
- Ki (Cytochrome P450 3A4): 1.1 µM
- Ki (Cytochrome P450 2E1): 0.6 µM
- Ki (Cytochrome P450 2C9): 1.3 µM
- Ki (Cytochrome P450 2B6): 5.3 µM
- half-life ([3]; liver microsomes): 0.4 h
- selectivity ratio (CYP2A6 over CYP2B6): 0.4
- selectivity ratio (CYP2A6 over CYP3A4): 0.1
- selectivity ratio (CYP2A6 over CYP2E1): 0.04
- Ki (Cytochrome P450 2C19): 0.7 µM
- selectivity ratio (CYP2A6 over CYP2C19): 0.1
- selectivity ratio (CYP2A6 over CYP2D6): 2.8
- Ki (Cytochrome P450 2D6): 38.4 µM
- half-life ([2]; liver microsomes): 1.53 h

SMILES: Cn1cnc(-c2cccnc2)c1
- Ki (Cytochrome P450 2A6 [1]): 0.4 µM
- Ki (Cytochrome P450 3A4): 131 µM
- Ki (Cytochrome P450 2E1): 2 µM
- Ki (Cytochrome P450 2C9): 39.7 µM
- Ki (Cytochrome P450 2B6): 73 µM
- half-life ([3]; liver microsomes): 8.02 h
- selectivity ratio (CYP2A6 over CYP2E1): 5
- Ki (Cytochrome P450 2C19): 61 µM
- Ki (Cytochrome P450 2D6): 102 µM
- Stability (Liver microsomes): Stable

SMILES: c1cncc(-c2ccsc2)c1
- Ki (Cytochrome P450 2A6 [1]): 0.7 µM
- selectivity ratio (CYP2A6 over CYP2C9): 69
- Ki (Cytochrome P450 3A4): 28 µM
- Ki (Cytochrome P450 2E1): > 400 µM
- Ki (Cytochrome P450 2C9): 48.2 µM
- Ki (Cytochrome P450 2B6): 30 µM
- Stability (Mus musculus): Stable
- selectivity ratio (CYP2A6 over CYP2B6): 42
- selectivity ratio (CYP2A6 over CYP3A4): 40
- selectivity ratio (CYP2A6 over CYP2E1): > 286
- Ki (Cytochrome P450 2C19): 55.6 µM
- selectivity ratio (CYP2A6 over CYP2C19): 81
- selectivity ratio (CYP2A6 over CYP2D6): > 286
- Ki (Cytochrome P450 2D6): 124 µM
- half-life ([2]; liver microsomes): 4.52 h

SMILES: CN(C)Cc1ccc(-c2cccnc2)s1
- Ki (Cytochrome P450 2A6 [1]): 66.5 µM
- selectivity ratio (CYP2A6 over CYP2C9): 1.5
- Ki (Cytochrome P450 3A4): 110 µM
- Ki (Cytochrome P450 2E1): > 400 µM
- Ki (Cytochrome P450 2C9): 103 µM
- Ki (Cytochrome P450 2B6): > 400 µM
- half-life ([3]; liver microsomes): 5.72 h
- selectivity ratio (CYP2A6 over CYP2B6): > 3
- selectivity ratio (CYP2A6 over CYP3A4): 1.6
- selectivity ratio (CYP2A6 over CYP2E1): > 3
- Ki (Cytochrome P450 2C19): 53 µM
- selectivity ratio (CYP2A6 over CYP2C19): 0.8
- selectivity ratio (CYP2A6 over CYP2D6): 0.2
- Ki (Cytochrome P450 2D6): 14.4 µM
- Stability (Liver microsomes): Stable

SMILES: Cc1nccn1-c1cccnc1
- Stability (Mus musculus): Stable
- half-life ([2]; liver microsomes): 2.22 h

SMILES: CNCc1ccc(-c2cccnc2)s1
- Ki (Cytochrome P450 2A6 [1]): 0.6 µM
- Ki (Cytochrome P450 3A4): > 400 µM
- Ki (Cytochrome P450 2E1): > 400 µM
- Ki (Cytochrome P450 2C9): 33.9 µM
- Ki (Cytochrome P450 2B6): > 400 µM
- Stability (Mus musculus): Stable
- Ki (Cytochrome P450 2C19): 29.9 µM
- Ki (Cytochrome P450 2D6): 56.5 µM
- half-life ([2]; liver microsomes): 1.6 h

SMILES: NCCCc1cccnc1
- Ki (Cytochrome P450 2A6 [1]): 6.6 µM
- selectivity ratio (CYP2A6 over CYP2C9): > 30
- Ki (Cytochrome P450 3A4): > 400 µM
- Ki (Cytochrome P450 2E1): > 400 µM
- Ki (Cytochrome P450 2C9): > 400 µM
- Ki (Cytochrome P450 2B6): > 400 µM
- Stability (Mus musculus): Stable
- selectivity ratio (CYP2A6 over CYP2B6): > 30
- selectivity ratio (CYP2A6 over CYP3A4): > 400
- selectivity ratio (CYP2A6 over CYP2E1): > 30
- Ki (Cytochrome P450 2C19): > 400 µM
- selectivity ratio (CYP2A6 over CYP2C19): > 30
- selectivity ratio (CYP2A6 over CYP2D6): > 30
- Ki (Cytochrome P450 2D6): > 400 µM
- Stability (Liver microsomes): Stable

SMILES: CC(=O)SCc1ccc(-c2cccnc2)o1
- Ki (Cytochrome P450 2A6 [1]): 0.8 µM
- selectivity ratio (CYP2A6 over CYP2C9): 3.4
- Activity (Cytochrome P450 2A6 [4]): Not Active
- Ki (Cytochrome P450 3A4): 1.5 µM
- Ki (Cytochrome P450 2E1): 0.2 µM
- Ki (Cytochrome P450 2C9): 2.9 µM
- Ki (Cytochrome P450 2B6): 0.9 µM
- half-life ([3]; liver microsomes): 0.3 h
- selectivity ratio (CYP2A6 over CYP2B6): 1
- selectivity ratio (CYP2A6 over CYP3A4): 1.7
- selectivity ratio (CYP2A6 over CYP2E1): 0.3
- Ki (Cytochrome P450 2C19): 3.9 µM
- selectivity ratio (CYP2A6 over CYP2C19): 4.6
- selectivity ratio (CYP2A6 over CYP2D6): 53
- Ki (Cytochrome P450 2D6): 45.4 µM
- half-life ([2]; liver microsomes): 0.5 h
